According to PubChem BioAssay (NCI):
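Following 48 hours of exposure in 96-well plates, responses at five concentrations were used to interpolate endpoints linearly. At the GI50, growth is halved. TGI: concentration producing complete growth inhibition.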 Where a SMILES comes first, the peptide text is derived from it. The star is where a group is joined. Boc = CC(C)(C)OC(=O)*

Legend:
Test in all cases: NCI-60 cell line screen, 48 h
[1] = test system: SN12C renal
[2] = test system: IGROV1 ovarian
[3] = test system: HOP-62 NSCLC
[4] = test system: CAKI-1 renal
[5] = test system: SNB-75 CNS
[6] = test system: SF-268 CNS
[7] = test system: MCF7 breast
[8] = test system: A549 NSCLC
[9] = test system: COLO 205 colon
[10] = test system: RXF 393 renal

| SMILES | GI50 [1] | TGI [1] | GI50 [2] | TGI [2] | GI50 [3] | TGI [3] | GI50 [4] | TGI [4] | GI50 [5] | TGI [5] | GI50 [6] | TGI [6] | GI50 [7] | TGI [7] | GI50 [8] | TGI [8] | GI50 [9] | TGI [9] | TGI [10] |
| --- | --- | --- | --- | --- | --- | --- | --- | --- | --- | --- | --- | --- | --- | --- | --- | --- | --- | --- | --- |
| COc1cc2nc(N3CCC[C@H](NC4=CC(=O)c5ccccc5C4=O)C3)nc(N)c2cc1OC | 1.73 µM | 3.51 µM | 2.07 µM | 4.27 µM | 2.26 µM | 4.48 µM | 1.89 µM | 3.91 µM | 1.64 µM | 3.3 µM | 1.82 µM | 3.61 µM | 1.61 µM | 3.3 µM | 2.23 µM | 4 µM | 1.91 µM | 3.47 µM |  |
| COC(=O)C(Cc1c[nH]c2ccccc12)NC(=O)C(Cc1c[nH]c2ccccc12)NC(=O)C(Cc1c[nH]c2ccccc12)NC(=O)C(Cc1c[nH]c2ccccc12)NC(=O)C(Cc1c[nH]c2ccccc12)NC(=O)C(Cc1c[nH]c2ccccc12)NC(=O)C(Cc1c[nH]c2ccccc12)NC(=O)OC(C)(C)C (stereo not drawn) (Boc-WWWWWWW-OMe; configuration not given here) |  | > 100 µM |  | > 100 µM |  | > 100 µM |  | > 100 µM |  | > 100 µM |  | > 100 µM |  | > 100 µM |  | > 100 µM |  |  |  |
| O=C1C=C(N2CCN(c3ncccn3)CC2)C(=O)c2c(O)ccc(O)c21 |  | > 100 µM |  | > 100 µM |  | > 100 µM |  | > 100 µM |  |  |  | > 100 µM |  | > 100 µM |  | > 100 µM |  | > 100 µM |  |
| Cn1c2ccccc2n2c3ncccc3c(=O)cc12 |  | > 100 µM |  | > 100 µM |  | > 100 µM |  | > 100 µM |  | > 100 µM |  | > 100 µM |  |  |  | > 100 µM |  | > 100 µM | > 100 µM |
| COc1ccc(/C=C2\CCCc3ccccc3C2=O)cc1 |  | 16.9 µM |  | > 100 µM |  | 76.7 µM |  | > 66.7 µM |  | > 82.3 µM |  | 5.53 µM |  | 99.2 µM |  | > 54.4 µM |  | 0.557 µM |  |
| CCC1=C(C[C@H]2NCCc3cc(OC)c(OC)cc32)C[C@H]2c3cc(OC)c(OC)cc3CCN2C1 |  | 0.193 µM |  | 0.444 µM |  | 0.106 µM |  | 0.199 µM |  | 0.107 µM |  | 0.407 µM |  |  |  |  |  |  | 0.0698 µM |
| Cc1ccc(-n2nncc2[Si](C)(C)C)s1 |  | > 100 µM |  |  |  |  |  | > 100 µM |  |  |  | > 100 µM |  | > 100 µM |  | > 100 µM |  | > 100 µM |  |
| Cc1cc2c(=O)c3ccc(Cl)cc3[nH]c2c(C(N)=O)c1C |  | > 100 µM |  | > 100 µM |  | > 100 µM |  |  |  | > 100 µM |  | > 100 µM |  |  |  | > 100 µM |  | > 100 µM |  |
| N/N=C(/N)SCCCCCCCCCCS/C(N)=N/N |  | > 100 µM |  | 69.9 µM |  | > 100 µM |  | > 100 µM |  |  |  | > 100 µM |  | 64.4 µM |  | 50.3 µM |  | 27.7 µM |  |
| O=C1c2ccncc2C(=O)c2c(O)ccc(O)c21 |  | 16.1 µM |  | 25.9 µM |  | 61.6 µM |  |  |  | 49.1 µM |  | 24.2 µM |  |  |  | 18.1 µM |  | 13.1 µM | 16.8 µM |
| Oc1c(Cl)cc2cc1-c1cc(cc(Cl)c1O)CCc1c(cc(Cl)c(O)c1Cl)-c1cc(Cl)c(c(Cl)c1O)/C=C\2 |  |  |  | 18.3 µM |  | 16 µM |  |  |  | 17.6 µM |  | 23.6 µM |  |  |  | 23.9 µM |  | 16.4 µM | > 50 µM |
| c1ccc2c(Nc3ncco3)cccc2c1 |  | > 10 µM |  | > 10 µM |  | > 10 µM |  | > 10 µM |  | > 10 µM |  | > 10 µM |  | > 10 µM |  | > 10 µM |  | > 10 µM |  |
| CC(CCc1nc2ccccc2s1)(c1ccc(O)cc1)c1ccc(O)cc1 |  | 33.6 µM |  | 28.3 µM |  | 31.5 µM |  | 45 µM |  | 34 µM |  | 40.5 µM |  |  |  | 38.2 µM |  |  | 33.2 µM |
| COc1cccc2c1OC1c3ccccc3OCC1(O)C2 (stereo not drawn) |  | > 100 µM |  | > 100 µM |  | > 100 µM |  | > 100 µM |  | > 100 µM |  | > 100 µM |  | > 100 µM |  | > 100 µM |  | > 100 µM |  |
| C/C(=N\Nc1nc2ccccc2[nH]1)c1ncccn1 |  | 0.991 µM |  | 9.41 µM |  | 49.4 µM |  | 23.7 µM |  | > 90.3 µM |  | > 93.3 µM |  |  |  | > 93 µM |  | > 49.6 µM | > 32.5 µM |
| C=C(Br)C[N+]12CN3CN(CN(C3)C1)C2 |  | > 100 µM |  | > 100 µM |  | > 100 µM |  | > 100 µM |  | > 100 µM |  | > 100 µM |  |  |  | > 100 µM |  | > 100 µM | > 100 µM |
| CC(C)(C)OC(=O)C(C#N)C(=O)c1ccc(C(=O)O)[nH]1 (stereo not drawn) |  | > 100 µM |  |  |  |  |  | 41.5 µM |  | > 100 µM |  | > 100 µM |  |  |  | > 100 µM |  | > 100 µM |  |
| CC(=O)CC(=O)N1CCSC1=S |  | > 10 µM |  | > 10 µM |  | > 10 µM |  |  |  | > 10 µM |  | > 10 µM |  | > 10 µM |  | > 10 µM |  |  | > 10 µM |
